Drawing on the SangsterLogP compilation, this text covers logP for 144 molecules.

For orientation: logP means a log measure of how a compound divides between an organic and an aqueous phase. For `CCI`, the logP amounted to 2.
In the case of `CCCc1ccc(S(N)(=O)=O)cc1` it was 1.64; in that of `Cc1ccc(C)c(O)c1`, 2.33; in that of `Nc1ccc(S(=O)(=O)Nc2ncccn2)cc1`, -0.09.
`COCc1ccccc1` showed a logP of 1.92.
Molecule `CC[C@H](C)N` showed a logP of 0.74.
As to `CC(C)(C)[N+](=O)[O-]`, the logP was determined as 1.17.
On to `Cc1ccc(Cl)cc1`, for which the logP was found to be 3.33.
`C=CCNCC=C` yielded a logP of 1.11.
In turn, `CCCn1nnc2ccccc21` came in with a logP of 2.13.
In the case of `Nc1ncnc2c1ncn2[C@H]1C[C@H](O)[C@@H](CO)O1` it was -0.55; in that of `CC1(C)S[C@@H]2[C@H](NC(=O)[C@H](N)c3ccccc3)C(=O)N2[C@H]1C(=O)O`, 1.35.
For the molecule `c1ccc2nc3ccccc3cc2c1`, the logP was determined as 3.4.
For `Nc1ccccc1C(=O)O` the value was 1.21.
With `Cc1cccc(OCC(=O)O)c1`, the logP is 1.78.
In the case of `CCOC(=O)c1cccnc1` it was 1.32.
In turn, `O=C(O)COc1ccccc1F` gave a logP of 1.39.
In the case of `c1ccc2c(c1)ccc1ccccc12` it was 4.46; in that of `COC(=O)c1cccnc1`, 0.83; in that of `Oc1ccc(Cl)cc1Cl`, 3.06.
In the case of `CC(=O)C(C#N)=NNc1ccc(Cl)cc1` it was 4.1.
As for `Clc1ccccc1-c1ccccc1`, the logP turned out to be 4.53.
Molecule `CCNC(=O)c1ccc(S(N)(=O)=O)cc1` yielded a logP of 0.03.
For `COc1cccc(CC(C)N)c1OC` (centres undefined) the value was 1.49.
With `CN/C(=C\[N+](=O)[O-])NCCSCc1ccc(CN(C)C)o1`, the logP worked out at 0.27.
`O=C(O)Cc1ccc(F)cc1`: the log partition coefficient (logP) came out at 1.55.
For `C=CCOc1ccccc1OCC(O)CNC(C)C` (centres undefined) the value was 2.1; for `CCN`, -0.13; for `Oc1cc(O)cc(O)c1`, 0.16.
`CCc1ccccc1C` came in with a logP of 3.53.
Consider `CC(=O)Nc1ccccc1C(=O)O`, for which the logP was 1.88.
In the case of `CC(C)(S)[C@@H](N)C(=O)O` it was -1.78.
For `COP(=O)(OC)OC=C(Cl)Cl` the value was 1.47; for `CCNC`, 0.15.
For `COC(=O)C(C#N)=NNc1c(Cl)cc(C(F)(F)F)cc1Cl` the value was 4.36; for `Nc1ccc(Cl)c(Cl)c1`, 2.69.
`COC(=O)C(C#N)=NNc1ccc(S(=O)(=O)C(F)(F)F)cc1` yielded a lipophilicity (logP) of 4.22.
For `CNC(=O)Oc1cccc(N(C)C)c1` the value was 1.43.
`Oc1ncnc2[nH]ncc12` returned a logP of -0.55.
For `CCCCCCCCCC` the value was 5.01.
On to `NS(=O)(=O)c1ccc([N+](=O)[O-])cc1`, for which the logP came out at 0.64.
For `CNC(C)Cc1ccccc1` (centres undefined), the logP stood at 2.07.
Consider `CN(Cc1ccccc1)c1ccccc1`, for which the log partition coefficient (logP) was 4.22.
In the case of `NS(=O)(=O)c1ccc(Cl)cc1` it was 1.15; in that of `CN(C)CCN1c2ccccc2Sc2ccccc21`, 4.2; in that of `CC(=O)Nc1ccccn1`, 0.61.
The molecule `Oc1ccc(-c2ccccc2)cc1` came in with a lipophilicity (logP) of 3.2.
In the case of `CCCCc1ccccc1` it was 4.38; in that of `NCCCCc1ccccc1`, 2.4.
For `Cc1cccc(N)c1` the value was 1.4.
For `c1ccc(-c2ncc[nH]2)cc1` the value was 1.88.
The molecule `Cc1ccc(C)c2ccccc12` returned a logP of 4.37.
For `Nc1nc2c(ncn2[C@@H]2O[C@H](CO)[C@@H](O)[C@H]2O)c(=O)[nH]1` the value was -1.9; for `Cc1ccc(Cc2cnc(NCCSCc3ccc(C(C)(C)N)o3)[nH]c2=O)cn1`, 2.06; for `Cc1cc([N+](=O)[O-])c2ccccc2[n+]1[O-]`, 1.25.
Regarding `CCc1ccc(OC(=O)NC)cc1`, the logP is 2.23.
As for `Oc1ccc(Br)cc1Br`, the logP amounted to 3.22.
In the case of `CNC(=O)Oc1ccc(I)cc1` it was 2.46.
For `O=C(O)c1cccc([N+](=O)[O-])c1` the value was 1.83; for `CCC(=O)O`, 0.33; for `O=c1cccccc1O`, 0.53.
For the molecule `COC(=O)C(C#N)=NNc1cccc(Cl)c1`, the logP is 3.6.
On to `CO/N=C/c1ccccc1`, for which the logP came to 2.53.
Take `O=CNc1ccccc1`: the logP stood at 1.15.
For `CCc1ccccc1N` the value was 1.74; for `CN(C)C(=O)COc1ccccc1`, 0.8.
In turn, `COc1ccc2c(c1)c(CC(=O)O)c(C)n2C(=O)c1ccc(Cl)cc1` showed a logP of 4.27.
For `Cc1ccc2[nH]ccc2c1` the value was 2.68; for `NC(=O)c1ccc([N+](=O)[O-])cc1`, 0.82.
`CC(=O)Nc1ccccc1`: the logP is 1.16.
As to `OCC(O)CO`, the logP was -1.76.
Molecule `CC(=O)Nc1ccc(I)cc1` gave a lipophilicity (logP) of 2.71.
In the case of `CC(=O)Oc1cccc(O)c1` it was 1.23.
For the molecule `NC1=C(Cl)C(=O)c2ccccc2C1=O`, the logP is 2.12.
As for `COc1ccc(CC(C)N)cc1OC` (centres undefined), the logP worked out at 1.2.
In the case of `CCC1(CC)C(=O)NC(=S)NC1=O` it was 1.5; in that of `CC(=O)c1ccncc1`, 0.48.
As for `Oc1ccc(I)cc1`, the logP was 2.91.
In the case of `O=C(O)CONC(=O)Nc1ccccc1` it was 0.26.
For `O=C(O)COc1ccc(Cl)cc1Cl` the value was 2.81.
For `CC(C(=O)O)c1ccc(-c2ccccc2)c(F)c1` (centres undefined) the value was 4.16; for `C[C@]12C[C@H](O)[C@H]3[C@@H](CCC4=CC(=O)CC[C@@]43C)[C@@H]1CC[C@@H]2C(=O)CO`, 1.94; for `c1ccc2c(c1)Cc1ccccc1-2`, 4.18.
In turn, `NC(=O)c1ccc(N)nc1` gave a logP of 0.7.
Turning to `O=C(O)c1ccccc1Nc1cccc(C(F)(F)F)c1`, the logP amounted to 5.25.
The molecule `CCOc1ccc(OC(=O)NC)cc1` yielded a logP of 1.63.
In the case of `c1cncnc1` it was -0.4; in that of `c1ccc(N2CCCCC2)cc1`, 2.98.
In the case of `C=CCOc1cc(C(=O)O)ccc1N` it was 1.25.
Molecule `NC(=O)c1cccnc1` registered a logP of -0.37.
Take `O=C(O)c1cccc(Br)c1`: the logP was found to be 2.87.
In the case of `CCCCCN` it was 1.49.
On to `CC1CC(C)C(=O)C(C(O)CC2CC(=O)NC(=O)C2)C1` (centres undefined), for which the logP was 0.55.
The molecule `CCOC(=O)C(C#N)=NNc1cc(Cl)c(Cl)c(Cl)c1` registered a logP of 5.03.
Molecule `Cn1cnc([N+](=O)[O-])c1Sc1ncnc2nc[nH]c12` registered a logP of 0.1.
In the case of `CCCCCC(C)=O` it was 1.98; in that of `CC(C)NCC(O)COc1cccc2[nH]ccc12` (centres undefined), 1.75; in that of `O=C(O)CCc1ccccc1`, 1.84.
For `Nc1ccc(-c2ccc(N)cc2)cc1` the value was 1.34; for `c1cncc([C@@H]2CCCCN2)c1`, 0.97; for `Nc1ccccc1-c1ccccc1`, 2.84.
In the case of `Nc1nc(N)c2ncn([C@H]3C[C@H](F)[C@@H](CO)O3)c2n1`, the logP was 0.05.
In the case of `CSc1nncc(=O)n1N` it was 0.38.
For `Cc1ccc2ccccc2c1` the value was 3.86; for `CCCC(CO)n1cnc2c(N)ncnc21` (centres undefined), 0.66.
Take `N#Cc1ccc(O)cc1`: the logP came out at 1.6.
In the case of `S=C=Nc1ccccc1` it was 3.28; in that of `CCN(CC)CCOC(=O)c1ccc(N)cc1`, 2.14.
For `CCCN(CCC)S(=O)(=O)c1ccc(C(=O)O)cc1` the value was 3.21; for `CN(C)CCN1C(=O)c2ccccc2N(C)c2ccccc21`, 2.5.
Consider `NC(=O)CCCn1nnc2ccccc21`, for which the logP amounted to 0.37.
For `Cc1ccnc(N)c1` the value was 0.56; for `O=C(O)c1cc([N+](=O)[O-])ccc1O`, 2.34.
For `CNC1(c2ccccc2Cl)CCCCC1=O` (centres undefined) the value was 2.18; for `N#Cc1ccc(/C=C/NC=O)cc1`, 1.62.
In the case of `Oc1ccc(O)cc1` it was 0.59.
Molecule `Nc1cccc(S(N)(=O)=O)c1` came in with a log partition coefficient (logP) of -0.38.
In the case of `CCC(=O)c1cccc(OC(=O)NC)c1` it was 1.49.
As for `CC(=O)OC1C(Cl)C(Cl)C(Cl)C(Cl)C1Cl` (centres undefined), the logP stood at 3.4.
In the case of `c1ccc2c(c1)[nH]c1ccccc12` it was 3.72; in that of `Cc1ccc(C(C)C)cc1`, 4.1; in that of `O=C1CC2OCC=C3CN4CC[C@]56c7ccccc7N1C5[C@H]2[C@H]3C[C@H]46` (some centres undefined), 1.93.
For `O=C(O)c1ccc(N=C=S)cc1` the value was 3.52; for `O=C(Nc1ccccc1)c1ccccc1O`, 3.27; for `O=C(O)c1ccccc1Nc1ccccc1`, 4.36.
In the case of `O=[N+]([O-])c1cc(Cl)c(O)c(Cl)c1` it was 2.94; in that of `COC(=O)C(C#N)=NNc1ccccc1`, 2.59; in that of `C[N+]1([O-])C2CCC1CC(OC(=O)C(CO)c1ccccc1)C2` (centres undefined), 0.98.
In turn, `Fc1ccccc1F` returned a logP of 2.37.
Turning to `CCCl`, the logP worked out at 1.43.
For `O=[N+]([O-])/C=C/c1cccc(O)c1` the value was 2.07; for `OC1CCCCC1`, 1.23; for `O=C(/C=C/c1ccccc1)c1ccccc1`, 3.08.
In the case of `Cc1cccc(C)c1` it was 3.2; in that of `Nc1ncnc2[nH]cnc12`, -0.09.
`Cn1nnc2ccccc21` displayed a logP of 1.13.
In turn, `O=C(O)Cc1ccc(O)cc1` registered a logP of 0.75.
In the case of `CC(=O)Oc1ccccc1C(=O)O` it was 1.19; in that of `O=c1ccn(C2C=CC(CO)O2)c(=O)[nH]1` (centres undefined), -1.07; in that of `O=C1[C@H]2CC=CC[C@H]2C(=O)N1SC(Cl)(Cl)Cl`, 2.8.
In the case of `NC(=O)c1ncccc1O` it was 0.65; in that of `O=C(O)c1ccccc1Cl`, 2.05.
Regarding `C=CCC1(CC)C(=O)NC(=O)NC1=O`, the logP amounted to 0.95.
Molecule `Cc1c[n+]([O-])c2ccccc2c1[N+](=O)[O-]` showed a logP of 1.06.
